From the kinase profiling compilation of Christmann-Franck et al. (2016)

Columns and labels:
Assay in all cases: KINOMEscan competition binding
Conditions in all cases: compound 0.5 µM
ROCK2 (human) = ROCK2 (human) (UniProt O75116)
BRAF (human) = BRAF (human) (UniProt P15056)
RIOK1 (human) = RIOK1 (human) (UniProt Q9BRS2)
ERBB4 (human) = ERBB4 (human) (UniProt Q15303)
PRKACA (human) = PRKACA (human) (UniProt P17612)
[1] = target: TYK2 JH1 catalytic (human) (UniProt P29597)
[2] = tested on: PIK3CA (human), P42336 [H1047Y]
[3] = tested on: ABL1 (human), P00519 [M351T]
ALK (human) = ALK (human) (UniProt Q9UM73)
CSNK1A1 (human) = CSNK1A1 (human) (UniProt P48729)
PKN1 (human) = PKN1 (human) (UniProt Q16512)
TTK (human) = TTK (human) (UniProt P33981)
RPS6KB1 (human) = RPS6KB1 (human) (UniProt P23443)
STK32A (human) = STK32A (human) (UniProt Q8WU08)
EPHA2 (human) = EPHA2 (human) (UniProt P29317)
CDK19 (human) = CDK19 (human) (UniProt Q9BWU1)
RIPK2 (human) = RIPK2 (human) (UniProt O43353)
MAPKAPK5 (human) = MAPKAPK5 (human) (UniProt Q8IW41)
IRAK4 (human) = IRAK4 (human) (UniProt Q9NWZ3)
BMPR1B (human) = BMPR1B (human) (UniProt O00238)
PIP5K1A (human) = PIP5K1A (human) (UniProt Q99755)
[4] = tested on: RET (human), P07949 [M918T]
RIOK2 (human) = RIOK2 (human) (UniProt Q9BVS4)
EPHA7 (human) = EPHA7 (human) (UniProt Q15375)
MAP4K4 (human) = MAP4K4 (human) (UniProt O95819)
PRKCE (human) = PRKCE (human) (UniProt Q02156)
MAPK8 (human) = MAPK8 (human) (UniProt P45983)
NTRK3 (human) = NTRK3 (human) (UniProt Q16288)
PIK3CD (human) = PIK3CD (human) (UniProt O00329)
ACVR1 (human) = ACVR1 (human) (UniProt Q04771)
FLT4 (human) = FLT4 (human) (UniProt P35916)
MAP4K2 (human) = MAP4K2 (human) (UniProt Q12851)
[5] = tested on: KIT (human), P10721 [L576P]
PKMYT1 (human) = PKMYT1 (human) (UniProt Q99640)
AKT1 (human) = AKT1 (human) (UniProt P31749)
LIMK2 (human) = LIMK2 (human) (UniProt P53671)
INSRR (human) = INSRR (human) (UniProt P14616)
CDK8 (human) = CDK8 (human) (UniProt P49336)
MAP3K10 (human) = MAP3K10 (human) (UniProt Q02779)
MAP3K4 (human) = MAP3K4 (human) (UniProt Q9Y6R4)
[6] = tested on: PIK3CA (human), P42336 [I800L]
KDR (human) = KDR (human) (UniProt P35968)

Chain of STK32A (human) (Q8WU08 whole entry, looked up): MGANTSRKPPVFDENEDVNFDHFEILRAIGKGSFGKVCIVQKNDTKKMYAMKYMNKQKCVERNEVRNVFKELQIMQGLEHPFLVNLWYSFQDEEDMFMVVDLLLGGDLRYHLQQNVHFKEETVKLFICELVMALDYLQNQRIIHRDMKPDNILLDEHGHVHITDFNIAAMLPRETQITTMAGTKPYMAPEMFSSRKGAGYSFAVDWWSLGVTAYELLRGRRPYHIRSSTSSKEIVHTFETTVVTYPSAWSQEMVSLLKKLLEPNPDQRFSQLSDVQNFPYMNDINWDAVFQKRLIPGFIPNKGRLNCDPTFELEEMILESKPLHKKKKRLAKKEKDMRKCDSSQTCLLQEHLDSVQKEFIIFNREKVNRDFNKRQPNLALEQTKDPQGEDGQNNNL
Chain of ALK (human) (Q9UM73 whole entry, looked up): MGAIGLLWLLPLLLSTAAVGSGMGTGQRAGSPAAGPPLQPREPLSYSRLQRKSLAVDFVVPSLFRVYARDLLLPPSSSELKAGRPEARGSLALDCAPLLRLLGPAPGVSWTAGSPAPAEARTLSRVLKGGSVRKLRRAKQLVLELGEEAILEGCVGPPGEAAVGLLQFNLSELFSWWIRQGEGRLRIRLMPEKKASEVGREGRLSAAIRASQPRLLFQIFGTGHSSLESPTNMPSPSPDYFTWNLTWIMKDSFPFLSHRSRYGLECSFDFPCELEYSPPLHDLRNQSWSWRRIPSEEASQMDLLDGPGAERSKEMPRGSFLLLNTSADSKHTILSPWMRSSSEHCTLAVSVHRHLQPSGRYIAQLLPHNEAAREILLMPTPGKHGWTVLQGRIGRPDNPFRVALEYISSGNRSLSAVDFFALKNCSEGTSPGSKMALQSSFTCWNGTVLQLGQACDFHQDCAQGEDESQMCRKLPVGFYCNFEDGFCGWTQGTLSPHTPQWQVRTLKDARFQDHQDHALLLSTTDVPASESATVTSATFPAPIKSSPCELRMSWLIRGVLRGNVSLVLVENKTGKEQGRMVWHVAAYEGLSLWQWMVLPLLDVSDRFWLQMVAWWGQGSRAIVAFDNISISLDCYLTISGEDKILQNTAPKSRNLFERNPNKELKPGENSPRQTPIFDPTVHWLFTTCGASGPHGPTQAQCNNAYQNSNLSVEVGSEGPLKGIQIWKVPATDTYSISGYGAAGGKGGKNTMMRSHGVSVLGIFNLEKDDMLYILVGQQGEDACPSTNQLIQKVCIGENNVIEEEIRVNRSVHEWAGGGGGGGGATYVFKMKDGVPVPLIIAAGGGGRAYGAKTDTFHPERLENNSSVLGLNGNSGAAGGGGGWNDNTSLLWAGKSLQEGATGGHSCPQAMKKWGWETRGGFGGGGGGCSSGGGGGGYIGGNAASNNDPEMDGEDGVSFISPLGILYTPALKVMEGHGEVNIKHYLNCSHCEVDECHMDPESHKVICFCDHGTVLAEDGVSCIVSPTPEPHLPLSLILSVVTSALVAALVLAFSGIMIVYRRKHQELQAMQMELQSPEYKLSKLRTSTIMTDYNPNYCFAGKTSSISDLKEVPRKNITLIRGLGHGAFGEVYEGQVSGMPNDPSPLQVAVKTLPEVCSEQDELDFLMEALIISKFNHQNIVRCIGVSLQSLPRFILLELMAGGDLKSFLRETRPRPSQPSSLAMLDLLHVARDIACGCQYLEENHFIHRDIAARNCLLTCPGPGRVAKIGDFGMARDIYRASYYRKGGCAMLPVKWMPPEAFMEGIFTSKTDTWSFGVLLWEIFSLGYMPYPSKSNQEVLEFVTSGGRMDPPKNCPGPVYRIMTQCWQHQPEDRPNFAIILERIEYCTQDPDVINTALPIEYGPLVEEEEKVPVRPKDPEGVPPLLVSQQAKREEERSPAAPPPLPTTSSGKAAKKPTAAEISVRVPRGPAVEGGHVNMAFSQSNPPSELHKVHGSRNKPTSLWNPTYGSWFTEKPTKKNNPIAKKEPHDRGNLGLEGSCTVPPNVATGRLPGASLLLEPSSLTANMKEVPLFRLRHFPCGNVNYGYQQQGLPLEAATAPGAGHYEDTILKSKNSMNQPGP
Chain of MAP4K4 (human) (O95819 whole entry, looked up): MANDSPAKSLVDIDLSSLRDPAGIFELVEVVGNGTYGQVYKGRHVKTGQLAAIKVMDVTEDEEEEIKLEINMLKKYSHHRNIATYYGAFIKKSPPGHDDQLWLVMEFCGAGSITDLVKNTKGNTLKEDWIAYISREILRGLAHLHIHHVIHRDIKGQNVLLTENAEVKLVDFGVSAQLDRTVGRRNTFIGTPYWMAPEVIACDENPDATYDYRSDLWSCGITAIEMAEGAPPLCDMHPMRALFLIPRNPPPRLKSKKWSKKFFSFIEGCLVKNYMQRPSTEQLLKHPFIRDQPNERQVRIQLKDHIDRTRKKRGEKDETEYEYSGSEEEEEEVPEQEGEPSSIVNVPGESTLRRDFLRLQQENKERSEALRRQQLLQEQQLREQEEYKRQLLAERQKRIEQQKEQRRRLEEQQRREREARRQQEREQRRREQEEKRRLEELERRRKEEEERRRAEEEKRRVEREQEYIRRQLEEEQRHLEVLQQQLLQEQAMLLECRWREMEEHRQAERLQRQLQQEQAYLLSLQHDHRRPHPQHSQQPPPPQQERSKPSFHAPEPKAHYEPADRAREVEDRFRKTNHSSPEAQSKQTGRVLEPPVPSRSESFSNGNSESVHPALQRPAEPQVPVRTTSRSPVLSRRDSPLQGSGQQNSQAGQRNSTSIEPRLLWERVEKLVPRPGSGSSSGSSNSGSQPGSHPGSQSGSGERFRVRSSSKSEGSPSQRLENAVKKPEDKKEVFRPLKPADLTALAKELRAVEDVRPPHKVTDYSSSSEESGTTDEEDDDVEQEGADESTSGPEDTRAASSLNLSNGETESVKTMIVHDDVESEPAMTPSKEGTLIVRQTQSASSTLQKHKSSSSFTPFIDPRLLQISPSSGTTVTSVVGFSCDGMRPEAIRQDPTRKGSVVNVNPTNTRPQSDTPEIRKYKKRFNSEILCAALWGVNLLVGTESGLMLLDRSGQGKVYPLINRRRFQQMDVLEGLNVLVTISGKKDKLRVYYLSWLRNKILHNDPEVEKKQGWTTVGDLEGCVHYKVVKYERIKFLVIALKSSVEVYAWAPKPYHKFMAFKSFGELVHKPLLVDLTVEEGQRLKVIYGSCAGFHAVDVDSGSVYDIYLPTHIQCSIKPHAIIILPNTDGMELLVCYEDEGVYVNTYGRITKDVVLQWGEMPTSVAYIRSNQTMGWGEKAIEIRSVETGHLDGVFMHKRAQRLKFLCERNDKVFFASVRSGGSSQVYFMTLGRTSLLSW
Chain of PRKCE (human) (Q02156 whole entry, looked up): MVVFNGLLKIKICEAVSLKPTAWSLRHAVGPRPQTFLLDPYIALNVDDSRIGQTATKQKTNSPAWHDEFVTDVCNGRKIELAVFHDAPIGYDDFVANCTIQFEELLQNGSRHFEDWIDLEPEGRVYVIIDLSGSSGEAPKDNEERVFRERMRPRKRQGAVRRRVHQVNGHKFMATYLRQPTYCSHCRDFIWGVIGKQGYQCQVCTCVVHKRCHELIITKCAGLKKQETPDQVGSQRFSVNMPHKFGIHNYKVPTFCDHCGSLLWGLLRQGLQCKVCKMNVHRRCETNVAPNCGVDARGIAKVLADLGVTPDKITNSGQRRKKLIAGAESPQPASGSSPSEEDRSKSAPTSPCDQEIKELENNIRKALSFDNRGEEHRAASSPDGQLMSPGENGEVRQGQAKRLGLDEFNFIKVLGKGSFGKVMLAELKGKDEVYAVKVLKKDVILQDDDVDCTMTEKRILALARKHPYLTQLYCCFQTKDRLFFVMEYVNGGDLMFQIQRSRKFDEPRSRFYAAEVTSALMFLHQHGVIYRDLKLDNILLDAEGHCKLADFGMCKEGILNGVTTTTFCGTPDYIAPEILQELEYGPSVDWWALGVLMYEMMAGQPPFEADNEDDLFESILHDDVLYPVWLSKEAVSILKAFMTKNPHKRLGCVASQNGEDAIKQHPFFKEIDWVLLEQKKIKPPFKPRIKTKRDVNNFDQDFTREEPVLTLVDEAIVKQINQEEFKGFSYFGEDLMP
Chain of RPS6KB1 (human) (P23443 whole entry, looked up): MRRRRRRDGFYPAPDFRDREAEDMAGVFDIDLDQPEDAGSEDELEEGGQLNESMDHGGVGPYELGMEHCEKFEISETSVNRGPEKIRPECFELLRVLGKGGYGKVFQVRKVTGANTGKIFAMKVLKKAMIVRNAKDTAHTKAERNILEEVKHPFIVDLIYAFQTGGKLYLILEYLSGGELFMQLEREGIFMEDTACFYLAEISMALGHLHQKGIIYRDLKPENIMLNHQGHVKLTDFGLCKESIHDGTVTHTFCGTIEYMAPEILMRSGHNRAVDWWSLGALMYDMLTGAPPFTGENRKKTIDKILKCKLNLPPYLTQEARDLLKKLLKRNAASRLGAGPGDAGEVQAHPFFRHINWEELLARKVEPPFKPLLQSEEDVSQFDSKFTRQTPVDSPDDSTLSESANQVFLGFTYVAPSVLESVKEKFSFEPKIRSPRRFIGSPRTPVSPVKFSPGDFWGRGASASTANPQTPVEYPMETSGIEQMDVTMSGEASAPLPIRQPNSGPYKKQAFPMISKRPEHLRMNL
Chain of CSNK1A1 (human) (P48729 whole entry, looked up): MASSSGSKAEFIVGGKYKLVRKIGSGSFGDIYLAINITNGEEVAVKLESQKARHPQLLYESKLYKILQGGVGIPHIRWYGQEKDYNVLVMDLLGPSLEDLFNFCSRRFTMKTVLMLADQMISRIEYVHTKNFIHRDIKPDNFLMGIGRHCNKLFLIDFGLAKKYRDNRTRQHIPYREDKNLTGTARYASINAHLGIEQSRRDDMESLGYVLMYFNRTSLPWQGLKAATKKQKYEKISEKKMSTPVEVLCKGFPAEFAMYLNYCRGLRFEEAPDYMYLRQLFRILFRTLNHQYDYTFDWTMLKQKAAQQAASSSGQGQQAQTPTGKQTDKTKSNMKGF

In the case of `Cn1c2ccccc2c2c3c(c4c5ccccc5n(CCC#N)c4c21)CNC3=O`, the kinase still bound, per cent of control (ROCK2 (human)) is reported as 18%, the kinase still bound, per cent of control (BRAF (human)) is reported as 100% and the kinase still bound, per cent of control (RIOK1 (human)) is reported as 0.6%. It also gave a kinase still bound, per cent of control (ERBB4 (human)) of 82%, a kinase still bound, per cent of control (PRKACA (human)) of 100% and a kinase still bound, per cent of control [1] of 0.6%. It also gave a kinase still bound, per cent of control [2] of 100%, a kinase still bound, per cent of control [3] of 88% and a kinase still bound, per cent of control (ALK (human)) of 2.1%. For the same compound, the kinase still bound, per cent of control (CSNK1A1 (human)) was 100%, the kinase still bound, per cent of control (PKN1 (human)) was 9.4% and the kinase still bound, per cent of control (TTK (human)) was 23%. For the same compound, the kinase still bound, per cent of control (RPS6KB1 (human)) was 23%, the kinase still bound, per cent of control (STK32A (human)) was 94% and the kinase still bound, per cent of control (EPHA2 (human)) was 87%. It also gave a kinase still bound, per cent of control (CDK19 (human)) of 91%, a kinase still bound, per cent of control (RIPK2 (human)) of 100% and a kinase still bound, per cent of control (MAPKAPK5 (human)) of 100%. For the same compound, the kinase still bound, per cent of control (IRAK4 (human)) was 0.2%, the kinase still bound, per cent of control (BMPR1B (human)) was 56% and the kinase still bound, per cent of control (PIP5K1A (human)) was 1.6%. It also gave a kinase still bound, per cent of control [4] of 0.15%, a kinase still bound, per cent of control (RIOK2 (human)) of 64% and a kinase still bound, per cent of control (EPHA7 (human)) of 81%. It also gave a kinase still bound, per cent of control (MAP4K4 (human)) of 2.2%, a kinase still bound, per cent of control (PRKCE (human)) of 66% and a kinase still bound, per cent of control (MAPK8 (human)) of 18%. For the same compound, the kinase still bound, per cent of control (NTRK3 (human)) was 0.15%, the kinase still bound, per cent of control (PIK3CD (human)) was 45% and the kinase still bound, per cent of control (ACVR1 (human)) was 21%. For the same compound, the kinase still bound, per cent of control (FLT4 (human)) was 62%, the kinase still bound, per cent of control (MAP4K2 (human)) was 1.1% and the kinase still bound, per cent of control [5] was 46%. The kinase still bound, per cent of control (PKMYT1 (human)) was 100%, the kinase still bound, per cent of control (AKT1 (human)) was 100% and the kinase still bound, per cent of control (LIMK2 (human)) was 100%. The kinase still bound, per cent of control (INSRR (human)) was 100%, the kinase still bound, per cent of control (CDK8 (human)) was 85% and the kinase still bound, per cent of control (MAP3K10 (human)) was 98%. For the same compound, the kinase still bound, per cent of control (MAP3K4 (human)) was 99%, the kinase still bound, per cent of control [6] was 19% and the kinase still bound, per cent of control (KDR (human)) was 82%.
